Test in all cases: relative viability (nuclei count vs DMSO), 5 days (fraction); higher = more cells survive
Compound in experiment [1]: CC1=CC(=C(N1C2=CC=C(C=C2)Cl)C)C(=O)CN3CCCCC3 [IU1-47] + CCNC(=O)c1noc(-c2cc(C(C)C)c(O)cc2O)c1-c1ccc(CN2CCOCC2)cc1 [Luminespib] (partner 0.01 µM)
In short, it runs like this: (§1)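 Lung cancer cell lines, seeded in 1536-well plates, were treated the following day by pin tool with a single drug or with five library-drug doses (not always all listed) in √10 steps on top of a fixed anchor-drug dose. Cells were fixed and nuclei stained in one step after 5 days, and nuclei were counted. Relative viability is the nuclei count for treated wells divided by that for vehicle wells, reported as medians of duplicate plates.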

Compound in experiment [2]: Cc1nc(C(=O)NCC(=O)O)c(O)c2ccc(Oc3ccccc3)cc12 [FG-4592] + CC(=O)Nc1cccc(-n2c(=O)n(C3CC3)c(=O)c3c(Nc4ccc(I)cc4F)n(C)c(=O)c(C)c32)c1 [Trametinib] (partner 0.02 µM)
The procedure, abridged:
as §1

Compound in experiment [3]: Cc1nc(C(=O)NCC(=O)O)c(O)c2ccc(Oc3ccccc3)cc12 [FG-4592] + C[C@]1(O)C[C@@H](c2nc(-c3ccc4ccc(-c5ccccc5)nc4c3)c3c(N)nccn32)C1 [Linsitinib] (partner 1 µM)
The procedure, abridged: as §1

Compound in experiment [4]: Cc1nc(C(=O)NCC(=O)O)c(O)c2ccc(Oc3ccccc3)cc12 [FG-4592] + Nc1ncn([C@H]2C[C@H](O)[C@@H](CO)O2)c(=O)n1 [Decitabine] (partner 2 µM)
The procedure, abridged: as §1

On to PC-14, for which the relative viability in experiment [1] (first compound 0.08 µM) came out at 0.185; in experiment [1] (first compound 0.253 µM) it was 0.168; in experiment [1] (first compound 0.8 µM), 0.186; in experiment [1] (first compound 2.53 µM), 0.151; in experiment [1] (first compound 8 µM) it was 0.179; in experiment [2] (first compound 0.08 µM), 0.708. Also, the relative viability in experiment [2] (first compound 0.253 µM) was determined as 0.717; in experiment [2] (first compound 0.8 µM), 0.71; in experiment [2] (first compound 2.53 µM) it was 0.833; in experiment [2] (first compound 8 µM), 0.496; in experiment [3] (first compound 0.08 µM), 0.977; in experiment [3] (first compound 0.253 µM), 0.941. Moreover, the relative viability in experiment [3] (first compound 0.8 µM) was 1; in experiment [3] (first compound 2.53 µM), 0.991; in experiment [3] (first compound 8 µM) it was 0.891; in experiment [4] (first compound 0.08 µM) it was 0.193; in experiment [4] (first compound 0.253 µM) it was 0.243; in experiment [4] (first compound 0.8 µM) it was 0.213. For the same cell line, the relative viability was 0.195 in experiment [4] (first compound 2.53 µM) and 0.226 in experiment [4] (first compound 8 µM).

As to RERF-LC-KJ, the relative viability was determined as 1.22 in experiment [1] (first compound 0.08 µM); 1.3 in experiment [1] (first compound 0.253 µM); 1.34 in experiment [1] (first compound 0.8 µM); 1.24 in experiment [1] (first compound 2.53 µM); 1.39 in experiment [1] (first compound 8 µM); 0.841 in experiment [2] (first compound 0.08 µM). Moreover, the relative viability in experiment [2] (first compound 0.253 µM) stood at 0.848; in experiment [2] (first compound 0.8 µM) it was 0.763; in experiment [2] (first compound 2.53 µM), 0.876; in experiment [2] (first compound 8 µM), 0.857; in experiment [3] (first compound 0.08 µM), 0.835; in experiment [3] (first compound 0.253 µM), 0.958. Also, the relative viability is 0.919 in experiment [3] (first compound 0.8 µM); 0.901 in experiment [3] (first compound 2.53 µM); 0.82 in experiment [3] (first compound 8 µM); 0.811 in experiment [4] (first compound 0.08 µM); 0.697 in experiment [4] (first compound 0.253 µM); 0.76 in experiment [4] (first compound 0.8 µM). The relative viability was found to be 0.81 in experiment [4] (first compound 2.53 µM) and 0.667 in experiment [4] (first compound 8 µM).

In the case of SK-LU-1, the relative viability turned out to be 0.202 in experiment [1] (first compound 0.08 µM); 0.197 in experiment [1] (first compound 0.253 µM); 0.204 in experiment [1] (first compound 0.8 µM); 0.238 in experiment [1] (first compound 2.53 µM); 0.207 in experiment [1] (first compound 8 µM); 0.402 in experiment [2] (first compound 0.08 µM). In addition, the relative viability was found to be 0.395 in experiment [2] (first compound 0.253 µM); 0.461 in experiment [2] (first compound 0.8 µM); 0.422 in experiment [2] (first compound 2.53 µM); 0.379 in experiment [2] (first compound 8 µM); 1.02 in experiment [3] (first compound 0.08 µM); 0.89 in experiment [3] (first compound 0.253 µM). The relative viability in experiment [3] (first compound 0.8 µM) stood at 0.971; in experiment [3] (first compound 8 µM), 0.928; in experiment [4] (first compound 0.08 µM), 0.66; in experiment [4] (first compound 0.253 µM), 0.55; in experiment [4] (first compound 0.8 µM), 0.671; in experiment [4] (first compound 2.53 µM), 0.582. Moreover, the relative viability in experiment [4] (first compound 8 µM) is 0.476.

Consider SK-MES-1, for which the relative viability in experiment [1] (first compound 0.08 µM) was found to be 0.965; in experiment [1] (first compound 0.253 µM) it was 0.891; in experiment [1] (first compound 0.8 µM), 0.87; in experiment [1] (first compound 2.53 µM) it was 0.897; in experiment [1] (first compound 8 µM), 0.839; in experiment [2] (first compound 0.08 µM) it was 0.604. Moreover, the relative viability in experiment [2] (first compound 0.253 µM) is 0.515; in experiment [2] (first compound 0.8 µM), 0.521; in experiment [2] (first compound 2.53 µM), 0.623; in experiment [2] (first compound 8 µM), 0.571; in experiment [3] (first compound 0.08 µM), 1.07; in experiment [3] (first compound 0.253 µM), 0.895. Further, the relative viability is 1.06 in experiment [3] (first compound 0.8 µM); 1.07 in experiment [3] (first compound 2.53 µM); 0.957 in experiment [3] (first compound 8 µM); 0.369 in experiment [4] (first compound 0.08 µM); 0.424 in experiment [4] (first compound 0.253 µM); 0.419 in experiment [4] (first compound 0.8 µM). Moreover, the relative viability in experiment [4] (first compound 2.53 µM) is 0.414; in experiment [4] (first compound 8 µM), 0.385.

SW 1573: the relative viability in experiment [1] (first compound 0.08 µM) turned out to be 0.196; in experiment [1] (first compound 0.253 µM), 0.179; in experiment [1] (first compound 0.8 µM) it was 0.129; in experiment [1] (first compound 2.53 µM), 0.261; in experiment [1] (first compound 8 µM), 0.23; in experiment [2] (first compound 0.08 µM) it was 0.611. Further, the relative viability in experiment [2] (first compound 0.253 µM) stood at 0.62; in experiment [2] (first compound 0.8 µM), 0.616; in experiment [2] (first compound 2.53 µM), 0.531; in experiment [2] (first compound 8 µM) it was 0.391; in experiment [3] (first compound 0.08 µM), 0.732; in experiment [3] (first compound 0.253 µM) it was 0.714. Besides, the relative viability was 0.893 in experiment [3] (first compound 0.8 µM); 0.721 in experiment [3] (first compound 2.53 µM); 0.782 in experiment [3] (first compound 8 µM); 0.516 in experiment [4] (first compound 0.08 µM); 0.505 in experiment [4] (first compound 0.253 µM); 0.537 in experiment [4] (first compound 0.8 µM). Moreover, the relative viability in experiment [4] (first compound 2.53 µM) is 0.482; in experiment [4] (first compound 8 µM), 0.447.
